Experimental data taken from US9526785B2, “Pharmaceuticals for oral delivery” (Enteris BioPharma, Inc., priority 2013, dated 2016).
Where “and” joins values, the source holds several entries; their conditions need not be identical. Equal values may be shown once. Read-outs that look alike come from different tables or passages of the source.

Assay: Tigecycline plasma PK after IV bolus in dogs
Assay type: in vivo, Beagle dogs
Conditions: for concentration at 10 min / concentration at 15 min / concentration at 20 min / concentration at 5 min / concentration at 30 min / concentration at 40 min / concentration at 60 min / concentration at 90 min / concentration at 120 min / concentration at 360 min: intravenous, Tigecycline Plasma Concentration
Description: Adult beagle dogs weighing approximately 9 to 15 kg were used in the study. […] Room temperature was set to be maintained between approximately 20±5° C. Relative humidity was monitored but not controlled.
TEKLAD™ Certified Canine Diet was provided once daily in amounts (˜400 grams) appropriate for the size and age of the animals. Tap water was available ad libitum via automatic watering device or water bowls.
Doses are expressed in terms of free net tigecycline content. […] Oral dosing of enteric-coated capsules was accomplished by administering them to the back of the dog's mouth, followed by a chase of 5 mL water to ensure swallowing.
Water was provided ad libitum. […] Subsequently, each group of animals was dosed based on the protocol, i.e. either IV, or PO by capsule.
Minocycline (VWR international) was used as an internal standard. Sample processing/clean-up of plasma samples was carried out offline by protein precipitation with acidified acetonitrile using 0.5% trifluoroacetic acid (TFA).
The HPLC system consisted of Shimadzu SIL-HTc HPLC system equipped with dual Shimadzu LC-10ADvp isopumps, a Shimadzu CTO-10ASvp column temperature controller and a Shimadzu SPD-10Avp variable wavelength detector. […] Mobile phase A consisted of 23 mM phosphate buffer pH 2.5 with 4 mM 1-octanesulfonic acid, while mobile phase B consisting of 90% acetonitrile, 10% water, with 2 mM 1-octanesulfonic acid. […] The total runtime was 18 minutes per sample. The mobile phase flow rate was 1.2 mL/min. Detection was performed using the SPD-10Avp variable wavelength detector set at 350 nm, with a sensitivity of 0.001 aufs.
The samples were then centrifuged under refrigeration at 13 k rpm for 5 minutes. The supernatant was taken and the liquid removed to dryness under nitrogen in a turbovap. The dried extract was reconstituted in 60 μL of mobile phase A and the suspension was further centrifuged at 5 k rpm for 5 minutes to pellet any insoluble matter. The resulting supernatant was then injected onto the LC.
The unknown concentration in dog plasma samples was determined by interpolation of the peak area ratios of analyte:internal standard versus the ratio of their nominal concentrations into the regression line obtained from calibration standards spiked in pooled dog plasma. No regression weighting was used for the calculations. […] The calibration curve covered the range of 0.05 μg/mL to 5 μg/mL.
It should be noted however, that when the method was transferred to an older HPLC system (equipped with a Shimadzu SCT-10Avp system controller and SIL-10A autoinjector), the time program was further altered such that the gradient went to 38% mobile phase B to account to system design changes. All other parameters remained unchanged.
Tigecycline PK parameters for individual dogs were calculated using non-compartmental analysis with PK Functions for Microsoft Excel.

[1] = 1 mg IV in PBS (0.08 mg/kg), SC427, individual dogs

## CN(C)c1cc(NC(=O)CNC(C)(C)C)c(O)c2c1C[C@H]1C[C@H]3[C@H](N(C)C)C(O)=C(C(N)=O)C(=O)[C@@]3(O)C(O)=C1C2=O [Tigecycline]
[1]
  AUC(0-t): 61.40 ng·h/mL and 99.54 ng·h/mL
  Cmax: 66.27 ng/mL and 85.18 ng/mL
  Tmax: 5 min
1 mg IV in PBS (0.08 mg/kg), SC427, mean
  Tmax: 5 min
5 mg IV in PBS ([…]), SC431, individual dogs
  Tmax: 5 min
5 mg IV in PBS ([…]), SC431, mean
  Tmax: 5 min
5 min, 1 mg IV in PBS (0.08 mg/kg), SC427, individual dogs
  Tigecycline Plasma Concentration: 66.27 ng/mL and 85.18 ng/mL
10 min, 1 mg IV in PBS (0.08 mg/kg), SC427, individual dogs
  Tigecycline Plasma Concentration: 23.92 ng/mL and 33.00 ng/mL
15 min, 1 mg IV in PBS (0.08 mg/kg), SC427, individual dogs
  Tigecycline Plasma Concentration: 19.85 ng/mL and 20.60 ng/mL
20 min, 1 mg IV in PBS (0.08 mg/kg), SC427, individual dogs
  Tigecycline Plasma Concentration: 21.11 ng/mL and 29.60 ng/mL
30 min, 1 mg IV in PBS (0.08 mg/kg), SC427, individual dogs
  Tigecycline Plasma Concentration: 17.14 ng/mL and 13.86 ng/mL
40 min, 1 mg IV in PBS (0.08 mg/kg), SC427, individual dogs
  Tigecycline Plasma Concentration: 11.51 ng/mL and 21.58 ng/mL
60 min, 1 mg IV in PBS (0.08 mg/kg), SC427, individual dogs
  Tigecycline Plasma Concentration: 12.49 ng/mL and 14.50 ng/mL
90 min, 1 mg IV in PBS (0.08 mg/kg), SC427, individual dogs
  Tigecycline Plasma Concentration: 8.90 ng/mL and 13.98 ng/mL
120 min, 1 mg IV in PBS (0.08 mg/kg), SC427, individual dogs
  Tigecycline Plasma Concentration: 8.80 ng/mL and 12.96 ng/mL
360 min, 1 mg IV in PBS (0.08 mg/kg), SC427, individual dogs
  Tigecycline Plasma Concentration: 0.00 ng/mL (2×) and 3.45 ng/mL
IV bolus 1 mg (0.08 mg/kg), SC427
  Cmax, Mean: 79 ng/mL
IV, Study 1 (SC427), 1 mg (0.08 mg/kg), mean (% CV)
  Tmax: 5 (0) min
female, Beagle, dog, plasma, 1 mg, 10 min, 1 mg IV in PBS (0.08 mg/kg), SC427, individual dogs
  concentration at 10 min: 38.8 ng/mL
female, Beagle, dog, plasma, 1 mg, 10 min, 1 mg IV in PBS (0.08 mg/kg), SC427, mean
  concentration at 10 min: 31.9 ng/mL
female, Beagle, dog, plasma, 1 mg, 15 min, 1 mg IV in PBS (0.08 mg/kg), SC427, individual dogs
  concentration at 15 min: 26.5 ng/mL
female, Beagle, dog, plasma, 1 mg, 15 min, 1 mg IV in PBS (0.08 mg/kg), SC427, mean
  concentration at 15 min: 22.3 ng/mL
female, Beagle, dog, plasma, 1 mg, 20 min, 1 mg IV in PBS (0.08 mg/kg), SC427, individual dogs
  concentration at 20 min: 27.7 ng/mL
female, Beagle, dog, plasma, 1 mg, 20 min, 1 mg IV in PBS (0.08 mg/kg), SC427, mean
  concentration at 20 min: 26.1 ng/mL
female, beagle, dog, plasma, 1 mg, 5 min, 1 mg IV in PBS (0.08 mg/kg), SC427, individual dogs
  concentration at 5 min: 86 ng/mL
female, beagle, dog, plasma, 1 mg, 5 min, 1 mg IV in PBS (0.08 mg/kg), SC427, mean
  concentration at 5 min: 79.1 ng/mL
female, beagle, dog, plasma, 1 mg, 30 min, 1 mg IV in PBS (0.08 mg/kg), SC427, individual dogs
  concentration at 30 min: 17.6 ng/mL
female, beagle, dog, plasma, 1 mg, 30 min, 1 mg IV in PBS (0.08 mg/kg), SC427, mean
  concentration at 30 min: 16.2 ng/mL
female, beagle, dog, plasma, 1 mg, 40 min, 1 mg IV in PBS (0.08 mg/kg), SC427, individual dogs
  concentration at 40 min: 14.3 ng/mL
female, beagle, dog, plasma, 1 mg, 40 min, 1 mg IV in PBS (0.08 mg/kg), SC427, mean
  concentration at 40 min: 15.8 ng/mL
female, beagle, dog, plasma, 1 mg, 60 min, 1 mg IV in PBS (0.08 mg/kg), SC427, individual dogs
  concentration at 60 min: 13.5 ng/mL
female, beagle, dog, plasma, 1 mg, 60 min, 1 mg IV in PBS (0.08 mg/kg), SC427, mean
  concentration at 60 min: 13.5 ng/mL
female, beagle, dog, plasma, 1 mg, 90 min, 1 mg IV in PBS (0.08 mg/kg), SC427, individual dogs
  concentration at 90 min: 11.2 ng/mL
female, beagle, dog, plasma, 1 mg, 90 min, 1 mg IV in PBS (0.08 mg/kg), SC427, mean
  concentration at 90 min: 11.4 ng/mL
female, beagle, dog, plasma, 1 mg, 120 min, 1 mg IV in PBS (0.08 mg/kg), SC427, individual dogs
  concentration at 120 min: 11.6 ng/mL
female, beagle, dog, plasma, 1 mg, 120 min, 1 mg IV in PBS (0.08 mg/kg), SC427, mean
  concentration at 120 min: 11.1 ng/mL
female, beagle, dog, plasma, 1 mg, 360 min, 1 mg IV in PBS (0.08 mg/kg), SC427, mean
  concentration at 360 min: 1.15 ng/mL
female, beagle, dog, plasma, 5 mg, 5 min, 5 mg IV in PBS ([…]), SC431, individual dogs
  concentration at 5 min: 336 ng/mL
female, beagle, dog, plasma, 5 mg, 5 min, 5 mg IV in PBS ([…]), SC431, mean
  concentration at 5 min: 335 ng/mL
female, beagle, dog, plasma, 5 mg, 10 min, 5 mg IV in PBS ([…]), SC431, individual dogs
  concentration at 10 min: 198 ng/mL
female, beagle, dog, plasma, 5 mg, 10 min, 5 mg IV in PBS ([…]), SC431, mean
  concentration at 10 min: 163 ng/mL
female, beagle, dog, plasma, 5 mg, 15 min, 5 mg IV in PBS ([…]), SC431, individual dogs
  concentration at 15 min: 122 ng/mL
female, beagle, dog, plasma, 5 mg, 15 min, 5 mg IV in PBS ([…]), SC431, mean
  concentration at 15 min: 111 ng/mL
female, beagle, dog, plasma, 5 mg, 20 min, 5 mg IV in PBS ([…]), SC431, individual dogs
  concentration at 20 min: 117 ng/mL
female, beagle, dog, plasma, 5 mg, 20 min, 5 mg IV in PBS ([…]), SC431, mean
  concentration at 20 min: 94.4 ng/mL
female, beagle, dog, plasma, 5 mg, 30 min, 5 mg IV in PBS ([…]), SC431, mean
  concentration at 30 min: 76.2 ng/mL
female, beagle, dog, plasma, 5 mg, 40 min, 5 mg IV in PBS ([…]), SC431, individual dogs
  concentration at 40 min: 72 ng/mL
female, beagle, dog, plasma, 5 mg, 40 min, 5 mg IV in PBS ([…]), SC431, mean
  concentration at 40 min: 60.5 ng/mL
female, beagle, dog, plasma, 5 mg, 60 min, 5 mg IV in PBS ([…]), SC431, mean
  concentration at 60 min: 49.1 ng/mL
female, beagle, dog, plasma, 5 mg, 90 min, 5 mg IV in PBS ([…]), SC431, individual dogs
  concentration at 90 min: 59.9 ng/mL
female, beagle, dog, plasma, 5 mg, 90 min, 5 mg IV in PBS ([…]), SC431, mean
  concentration at 90 min: 47.4 ng/mL
female, beagle, dog, plasma, 5 mg, 120 min, 5 mg IV in PBS ([…]), SC431, mean
  concentration at 120 min: 42.3 ng/mL
female, beagle, dog, plasma, 5 mg, 360 min, 5 mg IV in PBS ([…]), SC431, mean
  concentration at 360 min: 16.5 ng/mL
female, beagle, dog, plasma, iv, 0.08 mg/kg, 1 mg IV in PBS (0.08 mg/kg), SC427, individual dogs, read-out: AUC(0-t)
  AUC(0-t): 56.2 ng·h/mL
female, beagle, dog, plasma, iv, 0.08 mg/kg, 1 mg IV in PBS (0.08 mg/kg), SC427, individual dogs, read-out: Cmax
  Cmax: 86 ng/mL
female, beagle, dog, plasma, iv, 0.08 mg/kg, 1 mg IV in PBS (0.08 mg/kg), SC427, mean, read-out: AUC(0-t)
  AUC(0-t): 72.4 ng·h/mL
female, beagle, dog, plasma, iv, 0.08 mg/kg, 1 mg IV in PBS (0.08 mg/kg), SC427, mean, read-out: Cmax
  Cmax: 79.1 ng/mL
female, beagle, dog, plasma, iv, 0.08 mg/kg, IV bolus 1 mg (0.08 mg/kg), SC427, read-out: AUC(0-t), mean
  AUC(0-t): 72.4 ng·h/mL
female, beagle, dog, plasma, iv, 0.08 mg/kg, IV bolus 1 mg (0.08 mg/kg), SC427, read-out: Cmax, mean
  Cmax: 79.1 ng/mL
female, beagle, dog, plasma, iv, 0.08 mg/kg, IV, Study 1 (SC427), 1 mg (0.08 mg/kg), mean (% CV), read-out: AUC(0-t)
  AUC(0-t): 72.4 ng·h/mL
female, beagle, dog, plasma, iv, 0.08 mg/kg, IV, Study 1 (SC427), 1 mg (0.08 mg/kg), mean (% CV), read-out: Cmax
  Cmax: 79.1 ng/mL
female, beagle, dog, plasma, iv, […], 5 mg IV in PBS ([…]), SC431, individual dogs, read-out: Cmax
  Cmax: 336 ng/mL
female, beagle, dog, plasma, iv, […], 5 mg IV in PBS ([…]), SC431, mean, read-out: AUC(0-t)
  AUC(0-t): 411 ng·h/mL
female, beagle, dog, plasma, iv, […], 5 mg IV in PBS ([…]), SC431, mean, read-out: Cmax
  Cmax: 335 ng/mL
female, beagle, dog, plasma, iv, […], IV bolus 5 mg ([…]), SC431, read-out: AUC(0-t), mean
  AUC(0-t): 411 ng·h/mL
female, beagle, dog, plasma, iv, […], IV bolus 5 mg ([…]), SC431, read-out: Cmax, mean
  Cmax: 335 ng/mL
female, beagle, dog, plasma, iv, […], IV, Study 2 (SC431), 5 mg ([…]), mean (% CV), read-out: AUC(0-t)
  AUC(0-t): 411 ng·h/mL
female, beagle, dog, plasma, iv, […], IV, Study 2 (SC431), 5 mg ([…]), mean (% CV), read-out: Cmax
  Cmax: 335 ng/mL
female, beagle, dog, plasma, IV bolus 1 mg (0.08 mg/kg), SC427, read-out: Tmax, mean (converted)
  Tmax: 5 min
female, beagle, dog, plasma, IV bolus 5 mg (0.42 mg/kg), SC431, read-out: Tmax (converted)
  Tmax: 5 min
